Patent US6008188A, “Cytokine potentiator and pharmaceutical formulation for cytokine administration” (Kanebo Limited, priority 1994, dated 1999)
Where two headings read alike, the source gives them in different places.

How the values were obtained:
[1] = system: Normal human fibroblasts [Detroit-551 (ATCC CCL 110)]; experiment: Response to βFGF: procollagenase production by normal human fibroblasts Detroit-551 (Test Examples 4-10); format: cell-based; conditions: for activity at 3000 µM / activity at 1000 µM: Homo sapiens, Detroit 551, 96 h, read-out: Response to βFGF Increment; for Procollagenase Production: mean ± SD, n = 3
Method: (§1) In the following tests, the procollagenase production was quantified in terms of the collagenase activity as obtained through activation with trypsin.
(§2) It is known that βFGF promotes procollagenase production. In the following tests, therefore, the βFGF activity increment as attained by the compound added was calculated from the procollagenase production, relative to the control using purified water in place of the test compound.
(§3) Normal human fibroblasts [Detroit-551 (ATCC CCL 110) as prepared from the skin of a person] were suspended at a cell density of 1×10^5 cells/ml in the MEM medium, comprising 10% (V/V) FBS, 0.1% (W/V) (as final concentration) of enzymatic hydrolysate of lactalbumin (produced by Sigma Co.), 1% (V/V) non-essential amino acids and 1 mM sodium pyruvate (both produced by Dai-Nippon Pharmaceutical Co.). The suspended cells were seeded into each well of a 12-well plate in an amount of 0.8 ml/well (corresponding to 8×10^4 cells/well) and incubated in a saturated aqueous vapor with 5% CO2 at 37uC.
A cytokine activity enhancer (ethanolamine) as obtained in Example 3 mentioned below was diluted with an MEM medium containing 0.6% (V/V) FBS, 0.1% (W/V) (as final concentration) of enzymatic hydrolysate of lactalbumin, 1% (V/V) non-essential amino acids and 1 mM sodium pyruvate, to be 1 mM, and this was used as a solution to be added to the incubated cells.
(§4) After having been incubated for 24 hours, the culture medium was removed from the plate by suction, and the cells remained were washed twice with the MEM medium containing 0.6% (V/V) (as final concentration) of FBS. Then, the cells were fed with 0.8 ml of the solution prepared above, and were incubated for 4 days.
After the 4 days incubation, the culture medium was removed from the plate by suction, and the cells were fed with 0.8 ml of the MEM medium containing 3 ng/ml βFGF, 0.6% (V/V) FBS, 0.1% (W/V) (as final concentration) of enzymatic hydrolysate of lactalbumin, 1% (V/V) non-essential amino acids and 1 mM sodium pyruvate, and were incubated for 3 days to obtain a culture supernatant.
Next, in the same manner as in Test Example 1, procollagenase was recovered from the CM-Sepharose CL-6B (trade name), and the amount of procollagenase thus collected was measured.
A cytokine activity enhancer (N-methylethanolamine) as obtained in Example 4 to be mentioned hereinunder was tested for the βFGF activity increment, in the same manner as in Test Example 4.
as §3, with “collected” for “prepared”, “medium (hereinafter referred to as MEM2 medium),” for “medium,”, “1% (V/V)” for “0.1% (W/V)”, “of” for “of enzymatic hydrolysate of lactalbumin (produced by Sigma Co.), 1% (V/V)”, “The” for “The suspended”, “37° C.” for “37uC.”
A cytokine activity enhancer (Diisopropanolamine) as obtained in Example 5 mentioned below was diluted with the MEM2 medium containing 0.6% (V/V) FBS to be 3 mM, and this was used as a solution to be added to the incubated cells.
as §4, with “the MEM2” for “the MEM”, “prepared above” for “prepared above,”, “for 2” for “for 4”
After the 2 days incubation, the culture was removed by filtration under suction, and 0.8 ml of the solution was again added to the remaining cells, which were then incubated for 2 days. Thus, the cells were incubated for 4 days in total. […]

[2] = system: Normal human fibroblasts [CCD45SK (ATCC CRL 1506)]; experiment: Response to βFGF: procollagenase production by normal human fibroblasts CCD45SK (Test Examples 1-3); format: cell-based; conditions: Test Example 3, 1 mM, 10 ng/ml βFGF
Method: as §1, §2
Normal human fibroblasts [CCD45SK (ATCC CRL 1506) as prepared from the skin of a person] were suspended at a cell density of 1×10^5 cells/ml in the MEM medium, comprising 10% (V/V) FBS and 1% (V/V) non-essential amino acids (produced by Dai-Nippon Pharmaceutical Co.). The suspended cells were seeded into each well of a 12-well plate in an amount of 0.8 ml/well (corresponding to 8×10^4 cells/well) and incubated in a saturated aqueous vapor with 5% CO2 at 37° C. […]
as §4, with “with an” for “with the”, “0.6% (v/v)” for “0.6% (V/V)”, “prepared above added to the cells, which” for “prepared above, and”, “for 2” for “for 4”
After the 2 days incubation, the culture medium was removed from the plate by suction, and the cells were fed with 0.8 ml of the solution and were further incubated for 2 days. This operation was repeated once again. Thus, the cells were processed in the medium containing the cytokine activity enhancer for 6 days in total.
After the above-mentioned process, the culture medium was removed from the plate by suction, and the cells were fed with 0.8 ml of an MEM medium containing 3 ng/ml of βFGF (produced by Boehringer Manheim Co.) and 0.6% (V/V) FBS, and were incubated for 3 days to obtain a culture supernatant.
3.5 ml of 10 mM Tris-HCl buffer [adjusted at pH 7.8 at 4° C., containing 1 mM calcium chloride and 0.05% (W/V) Brij-35] was added to 500 μl of the thus-obtained culture supernatant, and applied to CM-Sepharose CL-6B (trade name, produced by Pharmacia Co., having a bed volume of 0.5 ml) as previously equilibrated with the same buffer.
Next, the inhibitor was removed through treatment with 0.5 ml of the same buffer as above but containing 125 mM sodium chloride (4 times in all, 2 ml of the buffer was used in total), and the procollagenase was recovered through treatment with 0.5 ml of the same buffer as above but containing 500 mM sodium chloride (4 times in all, 2 ml of the buffer was used in total). This was used as a test sample.
The test sample was suitably diluted with a buffer for measurement (mentioned above), 25 μl of the thus-diluted sample was mixed with 25 μl of the buffer, 20 μl of a trypsin solution (as prepared by adding trypsin, Type 12 (produced by Sigma Co.) to the buffer at a concentration of 1 mg/ml) was added thereto, and this was incubated at 35° C. for 5 minutes. Then, 30 μl of a soybean trypsin inhibitor solution (as prepared at a concentration of 3 mg/ml, using the buffer) was added to this to thereby inactivate the trypsin. The resulting solution is designated collagenase solution.
Using type I collagen as labeled with fluorescein isothiocyanate (hereinafter referred to as FITC) (this is an acetic acid solution of FITC-collagen having a concentration of 1 mg/ml; produced by Cosmo-Bio Co.), as a substrate solution, the collagenase activity (unit/ml) of the solution was measured according to the method of Nagai et al. (see Inflammations, Vol. 4, No. 2, p. 123, 1984). […] The procollagenase production (unit/ml of culture medium) was thus obtained and referred to as X1.

[3] = system: Normal human fibroblasts [CCD45SK (ATCC CRL 1506)]; experiment: Response to TGF-β1: TIMP production by normal human fibroblasts (Test Examples 12-13); format: cell-based
Method: Normal human fibroblasts [CCD45SK (ATCC CRL 1506) as prepared from the skin of a person] were suspended at a cell density of 1×10^5 cells/ml in the MEM medium, comprising 10% (V/V) FBS and 1% (V/V) non-essential amino acids (produced by Dai-Nippon Pharmaceutical Co.). The suspended cells were seeded into each well of a 12-well plate in an amount of 0.8 ml/well (corresponding to 8×10^4 cells/well) and incubated in a saturated aqueous vapor with 5% CO2 at 37° C.

[4] = system: Japanese native, male house rabbits
Method: Aqueous solutions of N-Methyl-L-Serine, Ethanolamine and N-Methylethanolamine that had been adjusted to have a pH of 7 with hydrochloric acid were used as test samples.
Using Japanese native, male house rabbits (body weight: about 3 kg), the test samples were tested according to the Draize method (see Appraisal of the Safety of Chemicals in Foods, Drugs and Cosmetics, p. 46, 1959, edited and published by the Deitorial Committee, Association of Food and Drug Officials of U.S.A.).
24 hours after the last application, the tested area of each rabbit was checked to score the erythema, edema, scab and rhagades, if any, formed in the area.
The erythema score, the edema score, the scab score, and the rhagades score as referred to in Table 17 were summed up to obtain the cumulative stimulation score.
Next, from the cumulative stimulation scores, obtained were the degrees of stimulation with N-Methyl-L-Serine, Ethanolamine and N-Methylethanolamine,according to the criteria shown in Table 18 below.

[5] = system: Japanese native, male house rabbits; remark: listed apart in the source
Method: Aqueous solutions of N-methyl-L-serine, ethanolamine and N-methylethanolamine that had been adjusted to have a pH 7 with hydrochloric acid were used as test samples.
Using Japanese native, male house rabbits (body weight: about 3 kg), the test samples were tested according to the above-mentioned the Draize method.
Precisely, the back of each rabbit was shaven and rubbed to form a scratched site (scratched skin). An adhesive tape for patch test (1.2×1.6 cm; Ribbon Aid, registered trade mane, produced by River Tape Chemicals Co.) as wetted with 0.1 ml of water, or 0.1 ml of an aqueous 1% (W/V) solution of the test compound was stuck onto the scratched skin and the normal skin. […] In addition, 48 hours after the peeling of the tape, the condition of the skin was also observed.
The scores as referred to in Table 21 were obtained, and the primary stimulation score was calculated according to the following equation.
Primary Stimulation Score=[(A+B)/2]+[(C+D)/2]+[(E+F)/2]+[(G+H)/2]
Next, from the primary stimulation scores, obtained was the degree of stimulation with N-Methyl-L-Serine or Ethanolamine or N-Methylethanolamineaccording to the criteria shown in Table 22 below.

healthy panelists = system: healthy panelists
Method: Aqueous solutions of N-methyl-L-serine, ethanolamine and N-methylethanolamine that had been adjusted to have a pH 7 with hydrochloric acid were used as test samples. These test samples were applied to 19 healthy panelists.
One hour and 24 hours after the removal of the patch, the condition of the skin of each panelist was observed.

IFN = conditions: cited from earlier work
[6] = Test Examples 6-10, 3 mM, 4 days, 3 ng/ml βFGF, MEM2 medium, control = 100
[7] = Test Examples 6-10, 3 mM, 4 days, 3 ng/ml βFGF, MEM2 medium
[8] = Test Examples 4-5, 1 mM, 4 days, 3 ng/ml βFGF

For `CC(N)CO` (racemic) [Example 6, D,L-2-Amino-1-Propanol], the activity at 3000 µM [1, 6] was 380% and the “Procollagenase Production” value [1, 7] was 33 ± 4.7 unit/ml.

With `OCCNCCO` [Example 2, diethanolamine] the activity at 1000 µM ([2]; Homo sapiens, Fibroblast, control = 100, read-out: Response to βFGF Increment) was 190% and the “Procollagenase Production” value ([2]; mean ± SD, n = 3) was 14 ± 1.3 unit/ml.

In the case of `NCCO` [Example 3, ethanolamine], the activity at 1000 µM [1] is reported as 180%, the “Procollagenase Production” value [1, 8] is reported as 21 ± 1.3 unit/ml and the activity at 1000 µM ([3]; Homo sapiens, Fibroblast, 144 h, read-out: Response to TGF-β1 Increment) is reported as 160%. The “TIMP Production” value ([3]; Test Example 13, 1 mM, 4 days, supernatant 6 days after TGF-β1, mean ± SD, n = 3) was 250 ± 9.0 unit/ml, the “Cumulative Stimulation Score” value ([4]; 0.1 ml of aqueous 0.1% (W/V) solution, once a day for 4 days) was 0 and the “cumulative stimulation to the skin (in words)” value ([4]; aqueous 0.1% (W/V) solution) was “low”. The “Primary Stimulation Score” value ([5]; 0.1 ml of aqueous 1% (W/V) solution, patch 24 hours, normal and scratched skin) was 0, the “stimulation to the skin (in words)” value ([5]; aqueous 1% (W/V) solution) was “low” and the panelists with erythema (healthy panelists; 0.05 ml of aqueous 1% (W/V) solution, 24 hours closed patch, 1 hour and 24 hours after removal, 19 panelists) was “only one panelists had minor erythema”.

For `CNCCO` [Example 4, N-methylethanolamine], the activity at 1000 µM ([1]; Test Examples 4-5, 1 mM, 4 days, 3 ng/ml βFGF, control = 100) was 180%, the “Procollagenase Production” value [1, 8] was 12 ± 1.7 unit/ml and the “cumulative stimulation to the skin (in words)” value ([4]; rabbit, in vivo) was “low”. The “Primary Stimulation Score” value ([5]; rabbit, in vivo) was 0.25, the “stimulation to the skin (in words)” value ([5]; rabbit, in vivo) was “low” and the panelists with erythema (healthy panelists; in vivo) was “only one panelists had minor erythema”.

For `CC(O)CNCC(C)O` (stereo not shown) [Example 5, Diisopropanolamine], the activity at 3000 µM [1, 6] was 760% and the “Procollagenase Production” value [1, 7] was 65 ± 13 unit/ml.

For `CCC(N)CO` (stereo not shown) [Example 7, 2-Amino-1-Butanol], the activity at 3000 µM [1, 6] was 190% and the “Procollagenase Production” value [1, 7] was 22 ± 2.4 unit/ml.

In the case of `NCC(O)CN` [Example 8, 1,3-Diamino-2-Propanol], the activity at 3000 µM [1, 6] is reported as 150% and the “Procollagenase Production” value [1, 7] is reported as 18 ± 0.95 unit/ml.

In the case of `CCC(O)CN` (stereo not shown) [Example 9, 1-Amino-2-Butanol], the activity at 3000 µM [1, 6] is reported as 290% and the “Procollagenase Production” value [1, 7] is reported as 24 ± 2.3 unit/ml.

For `CC1(C)[C@@H](O[C@H]2O[C@H](C(=O)O)[C@@H](O)[C@H](O)[C@H]2O[C@@H]2O[C@H](C(=O)O)[C@@H](O)[C@H](O)[C@H]2O)CC[C@]2(C)[C@H]3C(=O)C=C4[C@@H]5C[C@@](C)(C(=O)O)CC[C@]5(C)CC[C@@]4(C)[C@]3(C)CC[C@@H]12` [Glychrrhizic acid, glycyrrhizic acid], the IFN-producing activity (IFN) is listed as “has an IFN-producing activity”.
